Results: PMC4459106 (Scientific Reports, 2015)
Each block holds one substance with its values, some of them ahead of it.

How the values were obtained:
ERK2 = details: cited from earlier work
Text: While the biological relevance of this finding is debatable, care should be taken while analyzing in vitro data from studies that employ F-site and D-site containing ligands simultaneously.

[1] = biological target: T1, ppERK2 (D-recruitment site, DRS) (Rattus norvegicus, UniProt P63086); experiment: NMR 15N,1H TROSY titration of ppERK2 with peptide ligand (CSPs; DRS affinity by two-site fit); format: binding, rat (rat ERK2 numbering used throughout); details: 130 μM ppERK2, 50 mM HEPES pH 6.8, KIM15-31 up to 992.0 μM
T1 construct: made in house
Description: Spectral perturbations on ppERK2 were assessed from ^15N, ^1H TROSY experiments at 600 MHz and 25.0 °C using 1024 and 128 complex points and sweep-widths of 15 and 33 ppm in the ^1H and ^15N dimensions, respectively. […] A 130 μM sample of ppERK2 in a buffer containing 50 mM HEPES pH 6.8, 150 mM NaCl, 200 μM EDTA and 2 mM DTT was titrated with the following amounts of KIM15-31: 49.2, 99,8, 149.0, 296.2, 450.6, 992.0 μM.

ppERK2 = biological target: T2, ppERK2 (Rattus norvegicus, UniProt P63086); experiment: Fluorescence-based kinase assay, phosphorylation of ERK-sensor-D1 by ppERK2; format: biochemical, rat (rat ERK2 numbering used throughout); details: for Km: 2 nM ppERK2, 25 mM HEPES pH 7.5, 10 mM MgCl2, 28 °C, fluorescence 360/492 nm; for Vmax: 2 nM ppERK2, 25 mM HEPES pH 7.5, 28 °C
T2 construct: made in house
Description: The ERK-sensor-D1 peptide[57] […] The reaction was initiated after 1 hour of pre-incubation at room temperature by adding 10 μL of 5 mM Mg^2+/ATP to 90 μL of assay mixture and the fluorescence intensity was recorded at each time point for a total of 6 minutes on a Fluorolog fluorimeter (Horiba Jobin Yvon) in quartz cuvettes (Starna Cells) with a 10 mm path length and a reaction volume of 100 μL. The sample was excited at 360 nm and fluorescence was monitored at 492 nm using excitation and emission slit widths of 3 nm. The change in fluorescence was related to the progression of the reaction using a previously determined conversion factor[58].

T2 sequence (P63086 whole entry): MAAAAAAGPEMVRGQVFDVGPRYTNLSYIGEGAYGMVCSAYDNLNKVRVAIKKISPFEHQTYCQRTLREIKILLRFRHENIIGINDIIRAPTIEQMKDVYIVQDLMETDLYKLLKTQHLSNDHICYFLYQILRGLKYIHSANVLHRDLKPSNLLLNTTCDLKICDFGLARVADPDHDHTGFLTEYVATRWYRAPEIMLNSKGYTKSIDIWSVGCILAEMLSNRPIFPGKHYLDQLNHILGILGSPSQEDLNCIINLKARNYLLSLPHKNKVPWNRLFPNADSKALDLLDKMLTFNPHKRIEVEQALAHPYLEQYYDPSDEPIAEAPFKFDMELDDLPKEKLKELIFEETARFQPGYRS
T1 sequence (P63086 whole entry): as above

Substance: Ets-1: transcription factor possessing neither a canonical D-site nor F-site
binding to ERK2 (ERK2): efficiently bind ERK2

Substance: KIM15-31: DRS specific ligand (TLSLGAAMTQPPPEKTP; UniProt P35236 15-31, looked up, fragment)
CSPs on titration of ppERK2 with KIM15-31 [1]: the only significant CSPs are seen at the DRS and no significant long-range perturbations including at the FRS, are noted

Substance: PEA-15: anti-apoptotic small adaptor protein without canonical D-site or F-site sequences
binding to ERK2 (ERK2): efficiently bind ERK2

Km (ppERK2; absence of Elk387-399): 10.1 ± 0.8 µM
Vmax (ppERK2; absence of Elk387-399): 21.4 ± 0.5 nM phosphate/second
Km (ppERK2; presence of 100 μM Elk387-399): 22.7 ± 2.8 µM
Vmax (ppERK2; presence of 100 μM Elk387-399): 23.4 ± 1.1 nM phosphate/second
Substance: QRKTLQRRNLKGLNLNL-X3-TGPLSPC-Sox-PF [ERK-sensor-D1]

Substance: c-Fos: F-site containing c-Fos
increase in apparent KD of interaction with ppERK2 on DRS mutation (ERK2; F-site containing c-Fos, DRS-mutant vs native ERK2): 2-3 -fold
